In publication PMC3124071 (Journal of medicinal chemistry, 2011):

Columns and labels:
[1] = urate-lowering therapy ref 6; cited from earlier work
[2] = biological target: T1, human uric acid transporter 1 (hURAT1; SLC22A12) (Homo sapiens, UniProt Q96S37); assay: 14C-uric acid uptake inhibition in Xenopus oocytes expressing hURAT1; type: cell-based; conditions: for 14C-urate transport inhibition (in words): test compound at 50 μM
T1 sequence (Q96S37 1-553): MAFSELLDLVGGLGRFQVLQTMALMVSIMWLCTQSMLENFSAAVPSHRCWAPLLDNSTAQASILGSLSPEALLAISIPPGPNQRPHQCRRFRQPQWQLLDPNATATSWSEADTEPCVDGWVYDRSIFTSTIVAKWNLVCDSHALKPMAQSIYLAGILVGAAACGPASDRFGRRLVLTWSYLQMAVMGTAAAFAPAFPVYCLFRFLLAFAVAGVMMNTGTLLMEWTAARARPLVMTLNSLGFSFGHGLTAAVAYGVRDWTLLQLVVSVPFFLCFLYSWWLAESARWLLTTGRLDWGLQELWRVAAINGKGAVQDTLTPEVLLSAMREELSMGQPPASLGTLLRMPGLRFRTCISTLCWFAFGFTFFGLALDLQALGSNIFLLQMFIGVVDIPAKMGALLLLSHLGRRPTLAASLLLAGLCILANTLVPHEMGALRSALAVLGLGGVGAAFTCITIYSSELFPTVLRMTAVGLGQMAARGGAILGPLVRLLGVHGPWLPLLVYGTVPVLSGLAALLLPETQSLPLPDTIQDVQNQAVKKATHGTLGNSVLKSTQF

[3] = oral; 7 (100 mg/kg) versus 4 (300 mg/day) or 5 (1000 mg/day) ref 22; cited from earlier work

SMILES	14C-urate transport inhibition (in words) [2]	IC50 [2]	also measured
Oc1ncnc2[nH]ncc12 [Compound 3, allopurinol]	–	–	patients able to meet treatment goals [1]: about 40%
CCc1oc2c(OC)cccc2c1C(=O)c1ccc(OC)cc1 [Compound 19, (2-ethyl-7-methoxybenzofuran-3-yl)(4-methoxyphenyl)methanone]	weak inhibition	–	–
CCc1oc2ccccc2c1C(=O)c1ccc(OC)cc1 [Compound 12, (2-ethylbenzofuran-3-yl)(4-methoxyphenyl)methanone]	weak-to-no	> 50000 nM	–
CCc1oc2cc(OC)c(Br)cc2c1C(=O)c1cc(Br)c(O)c(Br)c1 [Compound 46, (5-bromo-2-ethyl-6-methoxybenzofuran-3-yl)(3,5-dibromo-4-hydroxyphenyl)methanone]	–	1650 ± 120 nM	inhibition at 50 µM ([2]; read-out: % Inhibition @ 50 μM): 98.1 ± 0.2%
CCc1oc2ccccc2c1C(=O)c1cc(Br)c(O)c(Br)c1 [Compound 7, (3,5-dibromo-4-hydroxyphenyl)(2-ethylbenzofuran-3-yl)methanone]	–	–	physiological effect (lowers urate level) compared with 4 and 5 [3]: greater physiological effect
CCc1oc2ccc(OC)cc2c1C(=O)c1ccc(OC)cc1 [Compound 14, (2-ethyl-5-methoxybenzofuran-3-yl)(4-methoxyphenyl)methanone]	weak inhibition	–	–
